Data from patent US10508086B2 (CANCER RESEARCH TECHNOLOGY LIMITED, priority 2014, dated 2019).

Assays:
[1] = target: PARG in HeLa cell line (Homo sapiens (Human), UniProt Q86W56); assay: PARG cell assay (nuclear PAR chains after MMS, immunofluorescence); format: cell-based; conditions: HeLa cells, MMS 50 μg/mL; read-out: PARG Cell IC50 Geomean
Method: This method is based on the detection of endogenous levels of poly (ADP) ribose chains present in the nucleus of HeLa cell line using indirect immunofluorescence. MMS stimulation increases PAR chains for up to 25 mins. After that point, PARG is active and breaks down the PAR chains, until by one hour after stimulation no PAR chains are detectable. Inhibition of PARG maintains PAR chains.
Briefly, following compound treatment and treatment with the DNA damaging agent methylmethanesulfonate (MMS), the cell monolayer is fixed, then permeabilised and incubated with a mouse monoclonal antibody raised against multimers of poly(ADP) ribose. After an overnight incubation, excess antibody is removed by washing and an Alexafluor 488-linked secondary antibody which recognises the mouse monoclonal is added together with a nuclear stain (Hoechst 33342). Images of the cells are then captured and analysed on a High Content Screening platform and the total intensity of the nuclear fluorescent signal at […] is quantified.
HeLa cells, seeded in 384-well plates, at 4000/well in 30 μL RPMI 1640 media, supplemented with 10% FBS and 2 mM Glutamax, were incubated overnight at 37° C., 5% CO2.
The following day, cells were dosed in quadruplicate with compound (10 point dose response) and incubated for 1 h at 37° C., 5% CO2.
At the end of the 1 h dosing period, MMS was added to duplicates at a final concentration of 50 μg/mL, for a further hour.
Media was tipped off and the cells fixed with 50 μL ice-cold 95% MetOH/PBS for 15 mins at −20° C. Following a PBS wash, 50 μL PBS/0.1% Triton was added to the cells for 20 mins. Following another PBS wash, anti-PAR antibody (Calbiochem AM80) was diluted 1:4000 in a buffer (PBS+0.5% FBS+0.05% Tween20) and added to the cells and incubated overnight at 4° C.
The following day, cells were washed three times with PBS and then incubated for 1 hr with secondary antibody (Alexa Fluor® 488 goat anti mouse IgG (H+L)) diluted 1:1000 and Hoechst diluted 1:5000 in buffer (5% FBS in PBS+0.05% Tween20).
Cells were washed three times with PBS and the plate sealed with a light-proof seal.
Images of the cells were captured on a ThermoFisher Celllnsight and the mean total intensity of spots fluorescent at 485 nm in the nucleus was reported.

[2] = target: Human Full Length PARG (Homo sapiens (Human), UniProt Q86W56); assay: PARG in vitro enzyme assay (TR-FRET); format: biochemical; conditions: read-out: PARG_EC50_ENZYME
Sequence of Human Full Length PARG (Q86W56 whole entry): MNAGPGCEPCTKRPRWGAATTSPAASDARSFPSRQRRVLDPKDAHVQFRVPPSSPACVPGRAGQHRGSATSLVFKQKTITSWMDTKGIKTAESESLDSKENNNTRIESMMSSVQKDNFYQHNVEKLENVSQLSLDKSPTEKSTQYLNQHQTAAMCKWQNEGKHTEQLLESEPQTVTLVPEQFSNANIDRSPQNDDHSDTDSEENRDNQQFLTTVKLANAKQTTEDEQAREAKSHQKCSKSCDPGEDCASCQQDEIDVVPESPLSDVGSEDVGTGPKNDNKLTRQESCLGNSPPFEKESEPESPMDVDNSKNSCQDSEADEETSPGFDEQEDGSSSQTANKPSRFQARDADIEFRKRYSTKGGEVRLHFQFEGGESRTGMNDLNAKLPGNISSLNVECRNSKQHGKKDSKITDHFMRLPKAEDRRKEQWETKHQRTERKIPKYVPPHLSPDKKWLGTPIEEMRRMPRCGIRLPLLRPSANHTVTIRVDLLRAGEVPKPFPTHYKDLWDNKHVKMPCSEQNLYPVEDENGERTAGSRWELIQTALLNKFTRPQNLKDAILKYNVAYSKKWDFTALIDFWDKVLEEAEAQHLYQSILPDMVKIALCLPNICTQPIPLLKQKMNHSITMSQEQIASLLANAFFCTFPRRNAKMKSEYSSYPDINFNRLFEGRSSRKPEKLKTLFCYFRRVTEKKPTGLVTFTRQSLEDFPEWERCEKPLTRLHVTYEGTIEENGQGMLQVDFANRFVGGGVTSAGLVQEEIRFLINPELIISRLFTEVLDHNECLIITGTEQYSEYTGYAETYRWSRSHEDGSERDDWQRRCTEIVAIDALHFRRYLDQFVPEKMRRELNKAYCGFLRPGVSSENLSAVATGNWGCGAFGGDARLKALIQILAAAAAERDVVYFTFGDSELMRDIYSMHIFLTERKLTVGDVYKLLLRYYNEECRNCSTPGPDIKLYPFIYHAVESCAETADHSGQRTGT
Procedure, shortened: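 Full-length human PARG ([…]) incubated with ribosylated PARP substrate (4.5 nM) for 10 min at room temperature in Tris pH 7.4 buffer with EDTA, EGTA, DTT, KCl. Detection by TR-FRET using anti-6HIS XL665 (14 nM final) and streptavidin europium cryptate (0.75 nM final) after 60 min; Em665/Em620 ratio converted to percent inhibition.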

Sequence of PARG in HeLa cell line (Q86W56 whole entry): as above

IC50 [1] | EC50 [2] | SMILES
89 nM | 92 nM | CN(C)CCCn1c(=O)n(-c2nnc(C(F)F)s2)c2cc(S(=O)(=O)NC3(CF)CC3)ccc21 [Example 170, 3-[5-(Difluoromethyl)-1,3,4-thiadiazol-2-yl]-1-[3-(dimethylamino)propyl]-N-[1-(fluoromethyl)cyclopropyl]-2-oxo-benzimidazole-5-sulfonamide]
1790 nM | 6020 nM | Cc1nsc(-n2c(=O)n(C)c3ccc(S(=O)(=O)NC4(C)CC4)cc32)n1 [Example 176, 1-Methyl-N-(1-methylcyclopropyl)-3-(3-methyl-1,2,4-thiadiazol-5-yl)-2-oxo-benzimidazole-5-sulfonamide]
1160 nM | 1150 nM | Cc1nsc(-n2c(=O)n(CC#N)c3ccc(S(=O)(=O)NC4(C)CC4)cc32)n1 [Example 179, 1-(Cyanomethyl)-N-(1-methylcyclopropyl)-3-(3-methyl-1,2,4-thiadiazol-5-yl)-2-oxo-benzimidazole-5-sulfonamide]
1930 nM | 1130 nM | Cc1nsc(-n2c(=O)n(CC#N)c3ccc(S(=O)(=O)NC4(CF)CC4)cc32)n1 [Example 180, 1-(Cyanomethyl)-N-[1-(fluoromethyl)cyclopropyl]-3-(3-methyl-1,2,4-thiadiazol-5-yl)-2-oxo-benzimidazole-5-sulfonamide]
537 nM | 309 nM | COCCn1c(=O)n(-c2nc(C)ns2)c2cc(S(=O)(=O)NC3(C)CC3)ccc21 [Example 182, 1-(2-Methoxyethyl)-N-(1-methylcyclopropyl)-3-(3-methyl-1,2,4-thiadiazol-5-yl)-2-oxo-benzimidazole-5-sulfonamide]
701 nM | 1390 nM | COCCn1c(=O)n(-c2nc(C)ns2)c2cc(S(=O)(=O)NC3(CF)CC3)ccc21 [Example 184, N-[1-(Fluoromethyl)cyclopropyl]-1-(2-methoxyethyl)-3-(3-methyl-1,2,4-thiadiazol-5-yl)-2-oxo-benzimidazole-5-sulfonamide]
740 nM | 3780 nM | COCCCn1c(=O)n(-c2nc(C)ns2)c2cc(S(=O)(=O)NC3(CF)CC3)ccc21 [Example 185, N-[1-(Fluoromethyl)cyclopropyl]-1-(3-methoxypropyl)-3-(3-methyl-1,2,4-thiadiazol-5-yl)-2-oxo-benzimidazole-5-sulfonamide]
3120 nM | 4230 nM | Cc1nsc(-n2c(=O)n(CCN(C)C)c3ccc(S(=O)(=O)NC4(CF)CC4)cc32)n1 [Example 186, 1-[2-(Dimethylamino)ethyl]-N-[1-(fluoromethyl)cyclopropyl]-3-(3-methyl-1,2,4-thiadiazol-5-yl)-2-oxo-benzimidazole-5-sulfonamide]
347 nM | 610 nM | Cc1nnc(-n2c(=O)n(CCN(C)C)c3ccc(S(=O)(=O)NC4(CF)CC4)cc32)s1 [Example 188, 1-[2-(Dimethylamino)ethyl]-N-[1-(fluoromethyl)cyclopropyl]-3-(5-methyl-1,3,4-thiadiazol-2-yl)-2-oxo-benzimidazole-5-sulfonamide]

The remaining lines, values behind:

SMILES | IC50 [1] | EC50 [2]
COCCn1c(=O)n(-c2nnc(C(F)F)s2)c2cc(S(=O)(=O)NC3(CF)CC3)ccc21 [Example 163, 3-[5-(Difluoromethyl)-1,3,4-thiadiazol-2-yl]-N-[1-(fluoromethyl)cyclopropyl]-1-(2-methoxyethyl)-2-oxo-benzimidazole-5-sulfonamide] | 104 nM | 90 nM
Cc1cc(Cn2c(=O)n(-c3nnc(C(F)F)s3)c3cc(S(=O)(=O)NC4(CF)CC4)ccc32)n(C)n1 [Example 164, 3-[5-(Difluoromethyl)-1,3,4-thiadiazol-2-yl]-1-[(2,5-dimethylpyrazol-3-yl)methyl]-N-[1-(fluoromethyl)cyclopropyl]-2-oxo-benzimidazole-5-sulfonamide] | 109 nM | 203 nM
Cc1cc(Cn2c(=O)n(-c3nnc(C(F)F)s3)c3cc(S(=O)(=O)NC4(C#N)CC4)ccc32)n(C)n1 [Example 165, N-(1-Cyanocyclopropyl)-3-[5-(difluoromethyl)-1,3,4-thiadiazol-2-yl]-1-[(2,5-dimethylpyrazol-3-yl)methyl]-2-oxo-benzimidazole-5-sulfonamide] | 127 nM | 234 nM
Cc1nnc(-n2c(=O)n(CC#N)c3ccc(S(=O)(=O)NC4(C)CC4)cc32)s1 [Example 166, 1-(Cyanomethyl)-N-(1-methylcyclopropyl)-3-(5-methyl-1,3,4-thiadiazol-2-yl)-2-oxo-benzimidazole-5-sulfonamide] | 291 nM | 784 nM
COCCn1c(=O)n(-c2nnc(C(F)F)s2)c2cc(S(=O)(=O)NC3(CF)CC3)c(F)cc21 [Example 167, 3-[5-(Difluoromethyl)-1,3,4-thiadiazol-2-yl]-6-fluoro-N-[1-(fluoromethyl)cyclopropyl]-1-(2-methoxyethyl)-2-oxo-benzimidazole-5-sulfonamide] | 46 nM | 74 nM
COCCn1c(=O)n(-c2nnc(C(F)F)s2)c2cc(S(=O)(=O)NC3(C)CC3)c(F)cc21 [Example 168, 3-[5-(Difluoromethyl)-1,3,4-thiadiazol-2-yl]-6-fluoro-1-(2-methoxyethyl)-N-(1-methylcyclopropyl)-2-oxo-benzimidazole-5-sulfonamide] | 32 nM | 99 nM
COCCn1c(=O)n(-c2nnc(C(F)F)s2)c2cc(S(=O)(=O)NC3(C)CC3)ccc21 [Example 169, 3-[5-(Difluoromethyl)-1,3,4-thiadiazol-2-yl]-1-(2-methoxyethyl)-N-(1-methylcyclopropyl)-2-oxo-benzimidazole-5-sulfonamide] | 36 nM | 355 nM
Cc1nsc(-n2c(=O)n(C)c3cc(F)c(S(=O)(=O)NC4(C)CC4)cc32)n1 [Example 171, 6-Fluoro-1-methyl-N-(1-methylcyclopropyl)-3-(3-methyl-1,2,4-thiadiazol-5-yl)-2-oxo-benzimidazole-5-sulfonamide] | 1550 nM | 7110 nM
Cc1nsc(-n2c(=O)n(C)c3cc(F)c(S(=O)(=O)NC4(CF)CC4)cc32)n1 [Example 172, 6-Fluoro-N-[1-(fluoromethyl)cyclopropyl]-1-methyl-3-(3-methyl-1,2,4-thiadiazol-5-yl)-2-oxo-benzimidazole-5-sulfonamide] | 2090 nM | 12000 nM
Cn1c(=O)n(-c2nnc(C(F)F)s2)c2cc(S(=O)(=O)NC3(C)CC3)c(F)cc21 [Example 173, 3-[5-(Difluoromethyl)-1,3,4-thiadiazol-2-yl]-6-fluoro-1-methyl-N-(1-methylcyclopropyl)-2-oxo-benzimidazole-5-sulfonamide] | 64 nM | 141 nM
Cn1c(=O)n(-c2ncns2)c2cc(S(=O)(=O)NC3(CF)CC3)ccc21 [Example 175, N-[1-(Fluoromethyl)cyclopropyl]-1-methyl-2-oxo-3-(1,2,4-thiadiazol-5-yl)benzimidazole-5-sulfonamide] | 551 nM | 250 nM
Cc1nnc(-n2c(=O)n(CC#N)c3ccc(S(=O)(=O)NC4(CF)CC4)cc32)s1 [Example 178, 1-(Cyanomethyl)-N-[1-(fluoromethyl)cyclopropyl]-3-(5-methyl-1,3,4-thiadiazol-2-yl)-2-oxo-benzimidazole-5-sulfonamide] | 903 nM | 682 nM
Cn1c(=O)n(-c2nnc(C(F)F)s2)c2cc(S(=O)(=O)NC3(CF)CC3)ccc21 [Example 181, 3-[5-(Difluoromethyl)-1,3,4-thiadiazol-2-yl]-N-[1-(fluoromethyl)cyclopropyl]-1-methyl-2-oxo-benzimidazole-5-sulfonamide] | 109 nM | 291 nM
COCCn1c(=O)n(-c2ncns2)c2cc(S(=O)(=O)NC3(CF)CC3)ccc21 [Example 183, N-[1-(Fluoromethyl)cyclopropyl]-1-(2-methoxyethyl)-2-oxo-3-(1,2,4-thiadiazol-5-yl)benzimidazole-5-sulfonamide] | 376 nM | 549 nM
COCCCn1c(=O)n(-c2nnc(C)s2)c2cc(S(=O)(=O)NC3(CF)CC3)ccc21 [Example 187, N-[1-(Fluoromethyl)cyclopropyl]-1-(3-methoxypropyl)-3-(5-methyl-1,3,4-thiadiazol-2-yl)-2-oxo-benzimidazole-5-sulfonamide] | 201 nM | 427 nM
